Experimental data: ChEMBL document CHEMBL3351833, “Synthesis and Biological Evaluation of Pyrazolo[1,5-a]pyrimidine Compounds as Potent and Selective Pim-1 Inhibitors” (ACS Med Chem Lett, 2015)

Legend:
[1] = molecular target: Serine/threonine-protein kinase pim-2 (Homo sapiens, UniProt Q9P1W9); experiment: Inhibition of Pim2 (unknown origin) using luciferase-luciferin based ATP detection reagent by Kinase-Glo assay; details: read-out: IC50
[2] = molecular target: Serine/threonine-protein kinase pim-1 (Homo sapiens, UniProt P11309); experiment: Inhibition of Pim1 (unknown origin) using luciferase-luciferin based ATP detection reagent by Kinase-Glo assay; details: read-out: IC50
Chain of Serine/threonine-protein kinase pim-1 (P11309 whole entry): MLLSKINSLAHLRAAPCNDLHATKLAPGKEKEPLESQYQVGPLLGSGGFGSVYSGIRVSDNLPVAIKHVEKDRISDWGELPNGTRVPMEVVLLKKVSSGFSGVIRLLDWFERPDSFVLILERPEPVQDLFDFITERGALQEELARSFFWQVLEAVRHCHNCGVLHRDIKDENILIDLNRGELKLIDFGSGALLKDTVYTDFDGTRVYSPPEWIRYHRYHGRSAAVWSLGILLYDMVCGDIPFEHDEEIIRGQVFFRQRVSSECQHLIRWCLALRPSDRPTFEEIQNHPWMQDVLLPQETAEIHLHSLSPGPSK

[3] = molecular target: T1, Receptor-type tyrosine-protein kinase FLT3 (Homo sapiens, UniProt P36888); experiment: Inhibition of human Flt3 (unknown origin)
T1 sequence (P36888 whole entry): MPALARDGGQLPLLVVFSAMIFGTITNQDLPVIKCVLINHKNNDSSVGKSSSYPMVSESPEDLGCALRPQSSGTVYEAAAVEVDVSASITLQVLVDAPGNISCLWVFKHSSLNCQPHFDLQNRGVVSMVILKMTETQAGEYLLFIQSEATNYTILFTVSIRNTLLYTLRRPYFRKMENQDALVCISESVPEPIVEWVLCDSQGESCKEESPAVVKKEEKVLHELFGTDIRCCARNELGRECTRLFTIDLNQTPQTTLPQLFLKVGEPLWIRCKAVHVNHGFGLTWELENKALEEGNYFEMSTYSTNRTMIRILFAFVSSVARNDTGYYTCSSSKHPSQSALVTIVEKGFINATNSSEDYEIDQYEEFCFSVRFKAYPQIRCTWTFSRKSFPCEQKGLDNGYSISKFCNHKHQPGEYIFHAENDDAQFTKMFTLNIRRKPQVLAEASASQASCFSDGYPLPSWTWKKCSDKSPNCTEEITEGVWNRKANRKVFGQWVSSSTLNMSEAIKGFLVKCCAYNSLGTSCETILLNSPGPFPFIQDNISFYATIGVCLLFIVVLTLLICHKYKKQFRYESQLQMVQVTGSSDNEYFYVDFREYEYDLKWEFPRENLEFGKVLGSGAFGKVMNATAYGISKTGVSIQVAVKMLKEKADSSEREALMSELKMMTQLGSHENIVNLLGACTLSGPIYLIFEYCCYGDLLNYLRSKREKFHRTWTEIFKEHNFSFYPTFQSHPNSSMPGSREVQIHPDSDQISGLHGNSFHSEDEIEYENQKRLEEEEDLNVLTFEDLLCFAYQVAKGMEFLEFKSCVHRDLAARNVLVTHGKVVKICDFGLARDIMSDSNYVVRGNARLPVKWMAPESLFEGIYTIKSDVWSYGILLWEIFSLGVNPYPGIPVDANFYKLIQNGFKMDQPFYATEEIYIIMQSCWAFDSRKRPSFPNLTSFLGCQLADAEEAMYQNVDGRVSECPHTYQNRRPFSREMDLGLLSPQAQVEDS

[4] = molecular target: Voltage-gated inwardly rectifying potassium channel KCNH2 (Homo sapiens, UniProt Q12809); experiment: Inhibition of human ERG expressed in CHO cells by automated patch clamp method; format: cell-based
Chain of Voltage-gated inwardly rectifying potassium channel KCNH2 (Q12809 whole entry): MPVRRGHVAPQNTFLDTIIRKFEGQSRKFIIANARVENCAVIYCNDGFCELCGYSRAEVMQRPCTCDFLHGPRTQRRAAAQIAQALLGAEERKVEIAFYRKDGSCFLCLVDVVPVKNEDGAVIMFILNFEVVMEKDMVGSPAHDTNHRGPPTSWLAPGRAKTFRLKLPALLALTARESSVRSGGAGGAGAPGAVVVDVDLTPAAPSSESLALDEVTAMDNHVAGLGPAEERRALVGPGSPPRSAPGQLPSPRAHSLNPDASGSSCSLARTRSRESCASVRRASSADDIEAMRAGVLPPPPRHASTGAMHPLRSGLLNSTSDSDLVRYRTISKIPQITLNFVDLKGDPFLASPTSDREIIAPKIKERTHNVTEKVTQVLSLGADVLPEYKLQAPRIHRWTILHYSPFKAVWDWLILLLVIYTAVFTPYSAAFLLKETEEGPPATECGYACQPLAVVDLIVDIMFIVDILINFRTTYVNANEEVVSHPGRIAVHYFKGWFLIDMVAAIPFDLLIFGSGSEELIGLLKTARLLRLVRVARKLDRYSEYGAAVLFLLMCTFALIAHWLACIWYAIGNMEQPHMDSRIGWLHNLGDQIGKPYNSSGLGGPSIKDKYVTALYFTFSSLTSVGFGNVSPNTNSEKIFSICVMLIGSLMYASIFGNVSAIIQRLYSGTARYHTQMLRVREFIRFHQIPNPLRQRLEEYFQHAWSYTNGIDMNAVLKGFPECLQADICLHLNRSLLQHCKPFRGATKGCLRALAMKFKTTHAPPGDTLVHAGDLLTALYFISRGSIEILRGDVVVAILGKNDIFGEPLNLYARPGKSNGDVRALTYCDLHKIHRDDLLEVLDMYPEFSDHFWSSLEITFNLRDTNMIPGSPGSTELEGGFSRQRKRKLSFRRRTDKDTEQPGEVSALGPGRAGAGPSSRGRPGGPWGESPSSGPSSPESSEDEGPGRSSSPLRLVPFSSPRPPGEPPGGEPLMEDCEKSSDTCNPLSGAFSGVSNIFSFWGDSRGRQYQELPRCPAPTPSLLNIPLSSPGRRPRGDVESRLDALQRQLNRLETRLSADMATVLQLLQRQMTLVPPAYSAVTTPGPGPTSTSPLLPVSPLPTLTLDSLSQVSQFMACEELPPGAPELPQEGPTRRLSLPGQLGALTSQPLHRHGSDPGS

Chain of Serine/threonine-protein kinase pim-2 (Q9P1W9 whole entry): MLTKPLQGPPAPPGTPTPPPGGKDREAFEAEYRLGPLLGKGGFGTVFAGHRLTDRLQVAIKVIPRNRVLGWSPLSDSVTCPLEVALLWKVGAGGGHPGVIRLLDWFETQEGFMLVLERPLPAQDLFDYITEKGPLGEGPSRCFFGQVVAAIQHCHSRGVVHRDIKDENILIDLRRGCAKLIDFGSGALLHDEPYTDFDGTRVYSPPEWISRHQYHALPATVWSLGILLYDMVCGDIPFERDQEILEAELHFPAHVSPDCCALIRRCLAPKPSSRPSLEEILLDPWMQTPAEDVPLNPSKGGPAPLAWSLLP

SMILES	IC50 [1]	further results
C[C@]1(O)CC[C@H](Nc2ccn3ncc(-c4cccc(OC(F)(F)F)c4)c3n2)CC1	2040 nM	–
O=S1(=O)CCC(CNc2ccn3ncc(-c4cccc(C(F)(F)F)c4)c3n2)CC1	6020 nM	–
FC(F)(F)c1cccc(-c2cnn3ccc(NCC4CCOCC4)nc23)c1	1970 nM	IC50 [2]: 149 nM
N[C@H]1CCCN(c2ccn3ncc(-c4cccc(Cl)c4)c3n2)C1	2000 nM	–
CO[C@H]1CC[C@H](Nc2ccn3ncc(-c4cccc(OC(F)(F)F)c4)c3n2)CC1	3620 nM	–
CN1CCC(CNc2ccn3ncc(-c4cccc(OC(F)(F)F)c4)c3n2)CC1	1490 nM	–
N[C@H]1CC[C@H](Nc2ccn3ncc(-c4cccc(OC(F)(F)F)c4)c3n2)CC1	100 nM	–
O=C1CCN(c2ccn3ncc(-c4cccc(Cl)c4)c3n2)CC1	564 nM	IC50 [2]: 168 nM
O=S1(=O)CCC(CNc2ccn3ncc(-c4cccc(OC(F)(F)F)c4)c3n2)CC1	8160 nM	–
O[C@H]1CC[C@H](Nc2ccn3ncc(-c4cccc(OC(F)(F)F)c4)c3n2)CC1	269 nM	IC50 [3]: 157 nM
CC(C)(O)[C@H]1CC[C@H](Nc2ccn3ncc(-c4cccc(C(F)(F)F)c4)c3n2)CC1	525 nM	IC50 [3]: 271 nM; IC50 [4]: > 30000 nM
C[C@]1(O)CC[C@H](Nc2ccn3ncc(-c4cccc(C(F)(F)F)c4)c3n2)CC1	639 nM	–
N[C@H]1CCCN(c2ccn3ncc(-c4cccc(OC(F)(F)F)c4)c3n2)C1	987 nM	–
